The values below come from patent US20090188497A1, “MEDICAL PRODUCT CONTAINING TIOTROPIUM” (Boehringer Ingelheim International GmbH, priority 2003, published 2009).

This data set in a line: In-use stability test of FPD, capsules in opened blister at 40° C. and 75% Rh (tests S3-S5). Conditions: conclusion of the tests on SPIRIVA. The class given is physicochemical. The source says: SPIRIVA® powder formulation in bulk and SPIRIVA® capsules from our local pharmacy were introduced to the laboratory together with the […]®. The laboratory was set up to perform in-vitro tests according to European Pharmacopoeia (EP) and US Pharmacopoeia (USP) using two Andersen cascade impactors. All analytical work where then performed according to standardized methods for Physical Tests and Determinations for Aerosols, metered-dose inhalers and dry powder inhalers described in pharmacopoeias (e.g. USP 2002<601>) using a state of the art High Performance Liquid Chromatograph (HPLC) system.
From the blister holding 5 capsules one capsule was withdrawn and the remaining 4 capsules were put 4 days into 40° C. and 75% Rh. The blister containing the 4 capsules was then put in an exicator for 2 h before tests were performed. The test was performed with 4 kPa pressure drop over the […]® at room temperature and laboratory ambient conditions.
From the blister holding 5 capsules one capsule was withdrawn and the remaining 4 capsules were put 13 days into 40° C. and 75% Rh. The blister containing the 4 capsules was then put in an exicator for 2 h before tests were performed. The test was performed with 4 kPa pressure drop over the […]® at room temperature and laboratory ambient conditions. […]

Molecules are shown by their SMILES.

Regarding `C[N+]1(C)[C@@H]2C[C@@H](OC(=O)C(O)(c3cccs3)c3cccs3)C[C@H]1[C@@H]1O[C@@H]12` [tiotropium], the sensitivity to moisture result is reported as “extremely sensitive to moisture”.
